This experiment relates to Bezold-Jarisch reflux. In words: Inhibition of Bezold-Jarisch reflux (2-methyl-5-hydroxytryptamine-induced bradycardia in anesthetized rats). It is filed as in vivo. As to conditions: test compound iv, 5-minutes interval, then 2-methyl-5-hydroxytryptamine 32 μg/kg iv, urethane-anesthetized male Sprague-Dawley rats, bradycardic response. On the procedure: Inhibition of Bezold-Jarisch reflux
Male Sprague-Dawley rats weighing 260-350 g were anesthetized intraperitoneally with 1.25 g/kg urethane.
Blood pressure and heart rate were monitored continuously from the left common carotid artery with a pressure transducer. A right femoral vein was cannulated for the intravenous injection (iv) of drugs. The trachea was also cannulated to ease the respiration.
Rats were given a rapid bolus injection of 2-methyl-5-hydroxytryptamine (32 μg/kg, iv) to establish the control bradycardic response. Once the heart rate returned to base line, the rats were given the test compound (iv), followed by 5-minutes interval and another bolus injection of 2-methyl-5-hydroxytryptamine (32 μg/kg, iv).

Like-named read-outs stand apart in the source and are kept apart here.

In the case of “3,4-dihydro-5-methyl-2-[(5-methyl-1-trityl-1H-imidazol-4-yl)methyl]pyrimido[1,6-a]indol-1 (2H)-one [Example 1]”, the ED50 (as a rule, the dose that gives a 50% effect, or the effect in half of the subjects) was found to be 0.56 µg/kg. Consider `Cc1[nH]cnc1C(C)N1CCc2c(C)c3ccccc3n2C1=O.Cl` (centres unmarked) [Compound 2, 3,4-Dihydro-5-methyl-2-[1-(5-methyl-1H-imidazol-4-yl)ethyl]pyrimido[1,6-a]indol-1(2H)-one hydrochloride], for which the 50% effective dose (ED50) (Rattus norvegicus, 5 min, read-out: ED50) is 1.5 µg/kg.

For the origin of these results see patent publication US5256780A, “Pyrimidoindole derivatives and processes for preparation thereof” (Fujisawa Pharmaceutical Co., Ltd., priority 1989, dated 1993).
